Patent publication US12453715B2, “Use of artemether in the prevention and treatment of Alzheimer's disease” (UNIVERSITY OF MACAU, priority 2018, dated 2025)

What was measured:
PC12 cells [1] = assay: MTT assay, Aβ1-42-induced cytotoxicity in PC12 cells; assay type: cell-based; details: 1 μM Aβ1-42 for 24 hours
Description: PC12 cells were cultured in DMEM (Dulbecco's Modified Eagle's) medium supplemented with 10% fetal bovine serum (FBS) and 100 μg/ml streptomycin in a humidified incubator 5% CO2 at 37° C. The cells were seeded in 96-well plates, and then treated with Aβ1-42a and artemether. MTT assay was used to access cell viability. MTT (3-(4,5-dimethylthiazole-2)-2,5-diphenyltetrazolium bromide) the detection principle relies on the enzymatic reduction of MTT to water-insoluble purple crystals-formazan particles, which is catalyzed by mitochondrial succinate dehydrogenase produced in living cells. The light absorption value is measured by an enzyme-linked immunoassay at 570 nm wavelength allowing to determine the number of living cells based on the amount of formazan produced. In short, PC12 cells were seeded in 96-well plates. In the next day the medium was replaced with fresh DMEM, and the cells pretreated with different concentrations of artemether or untreated followed by incubation with 1 μM Aβ1-42 for 24 hours. After 24 hours, MTT (0.5 mg/mL) was added to each well and further incubated for another 3 hours at 37° C. After incubation, the cells and MTT formazan crystals were dissolved with DMSO, and the absorbance was measured at 570 nm. Cell viability was calculated as a percentage of the control group.

PC12 cells [2] = assay: AMPK inhibitor compound C against the protective effect of artemether in PC12 cells (MTT, flow cytometry, Western blot); assay type: cell-based
Description: Apoptosis was evaluated by flow cytometry. PC12 cells were seeded into 6-well plates, treated, digested with 0.25% trypsin, harvested, washed twice with ice cold 1×PBS and suspended with buffer. […] were stained with 5 μL Annexin-V-FITC and 10 μL propidium iodide solution, incubated for 30 min in the dark, and the apoptotic cells in each group were determined and analyzed using a flow cytometer. The other steps are the same as in Embodiment 2.4 and Embodiment 10.

SMILES | effective dose for protection from Aβ1-42-induced cytotoxicity (PC12 cells [1]) | protection from Aβ1-42-induced cytotoxicity (cell viability, MTT) (PC12 cells [1]; artemether pretreatment) | effect on phosphorylation of AMPK and GSK3β (ser9) induced by artemether (PC12 cells [2]; Western blot, GAPDH as internal control) | effect on the protection by artemether from Aβ1-42-induced apoptosis (flow cytometry) (PC12 cells [2]; compound C pretreatment with artemether, Aβ1-42 (1 μM)) | effect on the cell survival effect of artemether (cell viability, MTT) (PC12 cells [2]; compound C pretreatment with artemether, Aβ1-42 (1 μM) for 24 hours)
CO[C@H]1O[C@@H]2O[C@@]3(C)CC[C@H]4[C@H](C)CC[C@@H]([C@H]1C)[C@@]24OO3 [artemether] | about 10 μM | protected PC12 cells from Aβ1-42-induced cytotoxicity in a concentration-dependent manner | – | – | –
c1cc(-c2cnn3cc(-c4ccc(OCCN5CCCCC5)cc4)cnc23)ccn1 [compound C] | – | – | reversed the phosphorylation of AMPK and GSK3β (ser9) induced by artemether | alleviated the protective effect of artemether on Aβ1-42-induced apoptosis | abolished the elevated cell survival effect of artemether
